pIC50: −log10 of the molar value.
Biological target: T1, PARP15 (Homo sapiens, UniProt Q460N3)
T1 sequence (Q460N3 1-678): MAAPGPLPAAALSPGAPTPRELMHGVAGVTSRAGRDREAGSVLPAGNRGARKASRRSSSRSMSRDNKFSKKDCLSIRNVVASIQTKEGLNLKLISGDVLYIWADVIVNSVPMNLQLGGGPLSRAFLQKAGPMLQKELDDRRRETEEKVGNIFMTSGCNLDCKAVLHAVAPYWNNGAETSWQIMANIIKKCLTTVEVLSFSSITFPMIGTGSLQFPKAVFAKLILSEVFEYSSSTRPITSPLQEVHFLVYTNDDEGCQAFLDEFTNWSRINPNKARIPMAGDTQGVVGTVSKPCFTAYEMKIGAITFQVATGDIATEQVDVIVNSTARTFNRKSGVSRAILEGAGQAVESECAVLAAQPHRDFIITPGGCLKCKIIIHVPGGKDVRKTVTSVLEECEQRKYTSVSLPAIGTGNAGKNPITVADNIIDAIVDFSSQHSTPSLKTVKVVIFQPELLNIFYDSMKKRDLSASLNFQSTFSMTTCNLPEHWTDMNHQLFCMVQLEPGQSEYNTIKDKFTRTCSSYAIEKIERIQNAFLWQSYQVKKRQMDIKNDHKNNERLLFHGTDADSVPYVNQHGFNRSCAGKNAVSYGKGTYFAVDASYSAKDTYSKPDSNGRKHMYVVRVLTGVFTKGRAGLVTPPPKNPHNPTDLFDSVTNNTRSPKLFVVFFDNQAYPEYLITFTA
Assay: biochemical

## Nc1nnc2sc3cc(O)ccc3n12 [Compound 109, 3-Amino[1,2,4]triazolo[3,4-b][1,3]benzothiazol-7-ol]
  pIC50: 6.17
